Laboratory results as given in patent US20250147039A1, “Compounds for complexation of rare earth elements and/or s-, p-, d- block metals, their coordination compounds, peptide conjugates, method of their preparation and use thereof” (USTAV ORGANICKE CHEMIE A BIOCHEMIE AV CR V.V.I., priority 2021, published 2025).

Tests used:
[1] = Formation of 1,5-cz-[M(Lig)] from Lig and M^III ions (metal dependent click-zip) (Charts 4, 5); format: physicochemical; conditions: MOPS/NaOH buffer pH 7.0, TD728, TD827 in 50% i-PrOH; for conversion to 1,5-cz-[M(Lig)], Y^III: TD714 sum of two diastereoisomers
[2] = Alkali metal dependent formation of 1,5-cz-Lig and 1,4-cz-Lig isomers from Lig at pH 10.2 (Chart 14); format: physicochemical; conditions: Borate/(M^I)2CO3 buffer pH 10.2
[3] = pH dependent formation of 1,5- and 1,4-cz-Lig isomers from Lig (pH dependent click-zip) (Chart 13); format: physicochemical
[4] = Formation of 1,5-cz-[Ln(Lig)] from Lig and Ln^III ions (metal dependent click-zip), MOPS/NaOH buffer pH 7.0, analytical HPLC (Charts 1, 2); conditions: MOPS/NaOH buffer pH 7.0
[5] = B: 1 day at 80° C., visible analyte free precipitate
[6] = A: 1 hour at 80° C., 0.1M HClO4 (pH ~1)
[7] = A: 1 hour at 80° C., 1.0M HClO4 (pH ~0)
[8] = A: 1 hour at 80° C., pH 2.2, 50 mM aq. buffer
[9] = A: 1 hour at 80° C., pH 3.0, 50 mM aq. buffer
[10] = A: 1 hour at 80° C., pH 3.8, 50 mM aq. buffer
[11] = A: 1 hour at 80° C., pH 4.6, 50 mM aq. buffer
[12] = A: 1 hour at 80° C., pH 5.4, 50 mM aq. buffer
[13] = A: 1 hour at 80° C., pH 6.2, 50 mM aq. buffer
[14] = A: 1 hour at 80° C., pH 7.0, 50 mM aq. buffer
[15] = A: 1 hour at 80° C., pH 8.6, 50 mM aq. buffer
[16] = A: 1 hour at 80° C., pH 9.4, 50 mM aq. buffer
[17] = A: 1 hour at 80° C., pH 10.2, 50 mM aq. buffer
[18] = B: 1 day at 80° C., 0.1M HClO4 (pH ~1)
[19] = B: 1 day at 80° C., 1.0M HClO4 (pH ~0)
[20] = B: 1 day at 80° C., pH 2.2, 50 mM aq. buffer
[21] = B: 1 day at 80° C., pH 3.0, 50 mM aq. buffer
[22] = B: 1 day at 80° C., pH 3.8, 50 mM aq. buffer
[23] = B: 1 day at 80° C., pH 4.6, 50 mM aq. buffer
[24] = B: 1 day at 80° C., pH 5.4, 50 mM aq. buffer
[25] = B: 1 day at 80° C., pH 6.2, 50 mM aq. buffer
[26] = B: 1 day at 80° C., pH 7.0, 50 mM aq. buffer
[27] = B: 1 day at 80° C., pH 8.6, 50 mM aq. buffer
[28] = B: 1 day at 80° C., pH 9.4, 50 mM aq. buffer
[29] = B: 1 day at 80° C., pH 10.2, 50 mM aq. buffer

conversion to 1,5-cz-[M(Lig)], Sc^III ([1]; 1 week at 80° C.): 0%
conversion to 1,5-cz-[M(Lig)], Y^III ([1]; 1 week at 80° C.): 0%
conversion to 1,5-cz-[M(Lig)], Sc^III ([1]; 1 hour at 80° C.): 0%
conversion to 1,5-cz-[M(Lig)], Y^III ([1]; 1 hour at 80° C.): 0%
conversion to 1,4-cz-Lig isomer, Cs^I ([2]; A: 1 hour at 80° C.): 1%
conversion to 1,4-cz-Lig isomer, K^I ([2]; A: 1 hour at 80° C.): 1%
conversion to 1,4-cz-Lig isomer, Li^I ([2]; A: 1 hour at 80° C.): 0%
conversion to 1,4-cz-Lig isomer, Na^I ([2]; A: 1 hour at 80° C.): 0%
conversion to 1,4-cz-Lig isomer, Rb^I ([2]; A: 1 hour at 80° C.): 1%
conversion to 1,5-cz-Lig isomer, Cs^I ([2]; A: 1 hour at 80° C.): 1%
conversion to 1,5-cz-Lig isomer, K^I ([2]; A: 1 hour at 80° C.): 0%
conversion to 1,5-cz-Lig isomer, Li^I ([2]; A: 1 hour at 80° C.): 0%
conversion to 1,5-cz-Lig isomer, Na^I ([2]; A: 1 hour at 80° C.): 1%
conversion to 1,5-cz-Lig isomer, Rb^I ([2]; A: 1 hour at 80° C.): 1%
conversion to 1,4-cz-Lig isomer, Cs^I ([2]; B: 1 day at 80° C.): 10%
conversion to 1,4-cz-Lig isomer, K^I ([2]; B: 1 day at 80° C.): 10%
conversion to 1,4-cz-Lig isomer, Na^I ([2]; B: 1 day at 80° C.): 1%
conversion to 1,4-cz-Lig isomer, Rb^I ([2]; B: 1 day at 80° C.): 10%
conversion to 1,5-cz-Lig isomer, Cs^I ([2]; B: 1 day at 80° C.): 11%
conversion to 1,5-cz-Lig isomer, K^I ([2]; B: 1 day at 80° C.): 10%
conversion to 1,5-cz-Lig isomer, Na^I ([2]; B: 1 day at 80° C.): 9%
conversion to 1,5-cz-Lig isomer, Rb^I ([2]; B: 1 day at 80° C.): 10%
conversion to 1,4-cz-Lig isomer, Li^I [2, 5]: 0%
conversion to 1,5-cz-Lig isomer, Li^I [2, 5]: 2%
conversion to 1,4-cz-Lig isomer [3, 6]: 0%
conversion to 1,5-cz-Lig isomer [3, 6]: 13%
conversion to 1,4-cz-Lig isomer [3, 7]: 0%
conversion to 1,5-cz-Lig isomer [3, 7]: 13%
conversion to 1,4-cz-Lig isomer [3, 8]: 0%
conversion to 1,5-cz-Lig isomer [3, 8]: 13%
conversion to 1,4-cz-Lig isomer [3, 9]: 0%
conversion to 1,5-cz-Lig isomer [3, 9]: 10%
conversion to 1,4-cz-Lig isomer [3, 10]: 0%
conversion to 1,5-cz-Lig isomer [3, 10]: 3%
conversion to 1,4-cz-Lig isomer [3, 11]: 0%
conversion to 1,5-cz-Lig isomer [3, 11]: 1%
conversion to 1,4-cz-Lig isomer [3, 12]: 0%
conversion to 1,5-cz-Lig isomer [3, 12]: 1%
conversion to 1,4-cz-Lig isomer [3, 13]: 0%
conversion to 1,5-cz-Lig isomer [3, 13]: 0%
conversion to 1,4-cz-Lig isomer [3, 14]: 0%
conversion to 1,5-cz-Lig isomer [3, 14]: 0%
conversion to 1,4-cz-Lig isomer [3, 15]: 0%
conversion to 1,5-cz-Lig isomer [3, 15]: 0%
conversion to 1,4-cz-Lig isomer [3, 16]: 0%
conversion to 1,5-cz-Lig isomer [3, 16]: 1%
conversion to 1,4-cz-Lig isomer [3, 17]: 0%
conversion to 1,5-cz-Lig isomer [3, 17]: 1%
conversion to 1,4-cz-Lig isomer [3, 18]: 0%
conversion to 1,5-cz-Lig isomer [3, 18]: 90%
conversion to 1,4-cz-Lig isomer [3, 19]: 0%
conversion to 1,5-cz-Lig isomer [3, 19]: 88%
conversion to 1,4-cz-Lig isomer [3, 20]: 0%
conversion to 1,5-cz-Lig isomer [3, 20]: 93%
conversion to 1,4-cz-Lig isomer [3, 21]: 0%
conversion to 1,5-cz-Lig isomer [3, 21]: 89%
conversion to 1,4-cz-Lig isomer [3, 22]: 0%
conversion to 1,5-cz-Lig isomer [3, 22]: 57%
conversion to 1,4-cz-Lig isomer [3, 23]: 0%
conversion to 1,5-cz-Lig isomer [3, 23]: 15%
conversion to 1,4-cz-Lig isomer [3, 24]: 0%
conversion to 1,5-cz-Lig isomer [3, 24]: 6%
conversion to 1,4-cz-Lig isomer [3, 25]: 1%
conversion to 1,5-cz-Lig isomer [3, 25]: 6%
conversion to 1,4-cz-Lig isomer [3, 26]: 4%
conversion to 1,5-cz-Lig isomer [3, 26]: 8%
conversion to 1,4-cz-Lig isomer [3, 27]: 5%
conversion to 1,5-cz-Lig isomer [3, 27]: 10%
conversion to 1,4-cz-Lig isomer [3, 28]: 4%
conversion to 1,5-cz-Lig isomer [3, 28]: 11%
conversion to 1,4-cz-Lig isomer [3, 29]: 2%
conversion to 1,5-cz-Lig isomer [3, 29]: 12%
conversion to 1,5-cz-[Ln(Lig)], Ce^III ([4]; after 1 week at 80° C.): 0%
conversion to 1,5-cz-[Ln(Lig)], Ce^III ([4]; after 1 hour at 80° C.): 0%
conversion to 1,5-cz-[Ln(Lig)], Dy^III ([4]; after 1 week at 80° C.): 0%
conversion to 1,5-cz-[Ln(Lig)], Dy^III ([4]; after 1 hour at 80° C.): 0%
conversion to 1,5-cz-[Ln(Lig)], Er^III ([4]; after 1 week at 80° C.): 0%
conversion to 1,5-cz-[Ln(Lig)], Er^III ([4]; after 1 hour at 80° C.): 0%
conversion to 1,5-cz-[Ln(Lig)], Eu^III ([4]; after 1 week at 80° C.): 0%
conversion to 1,5-cz-[Ln(Lig)], Eu^III ([4]; after 1 hour at 80° C.): 0%
conversion to 1,5-cz-[Ln(Lig)], Gd^III ([4]; after 1 week at 80° C.): 0%
conversion to 1,5-cz-[Ln(Lig)], Gd^III ([4]; after 1 hour at 80° C.): 0%
conversion to 1,5-cz-[Ln(Lig)], Ho^III ([4]; after 1 week at 80° C.): 0%
conversion to 1,5-cz-[Ln(Lig)], Ho^III ([4]; after 1 hour at 80° C.): 0%
conversion to 1,5-cz-[Ln(Lig)], La^III ([4]; after 1 week at 80° C.): 0%
conversion to 1,5-cz-[Ln(Lig)], La^III ([4]; after 1 hour at 80° C.): 0%
conversion to 1,5-cz-[Ln(Lig)], Lu^III ([4]; after 1 week at 80° C.): 0%
conversion to 1,5-cz-[Ln(Lig)], Lu^III ([4]; after 1 hour at 80° C.): 0%
conversion to 1,5-cz-[Ln(Lig)], Nd^III ([4]; after 1 week at 80° C.): 0%
conversion to 1,5-cz-[Ln(Lig)], Nd^III ([4]; after 1 hour at 80° C.): 0%
conversion to 1,5-cz-[Ln(Lig)], Pr^III ([4]; after 1 week at 80° C.): 0%
conversion to 1,5-cz-[Ln(Lig)], Pr^III ([4]; after 1 hour at 80° C.): 0%
conversion to 1,5-cz-[Ln(Lig)], Sm^III ([4]; after 1 week at 80° C.): 0%
conversion to 1,5-cz-[Ln(Lig)], Sm^III ([4]; after 1 hour at 80° C.): 0%
conversion to 1,5-cz-[Ln(Lig)], Tb^III ([4]; after 1 week at 80° C.): 0%
conversion to 1,5-cz-[Ln(Lig)], Tb^III ([4]; after 1 hour at 80° C.): 0%
conversion to 1,5-cz-[Ln(Lig)], Tm^III ([4]; after 1 week at 80° C.): 0%
conversion to 1,5-cz-[Ln(Lig)], Tm^III ([4]; after 1 hour at 80° C.): 0%
conversion to 1,5-cz-[Ln(Lig)], Yb^III ([4]; after 1 week at 80° C.): 0%
conversion to 1,5-cz-[Ln(Lig)], Yb^III ([4]; after 1 hour at 80° C.): 0%
SMILES: C#CCNC(=O)CN1CCN(CC(=O)O)CCN(Cc2cc(-c3ccccc3)cc(CN=[N+]=[N-])n2)CCN(CC(=O)O)CC1 [TD425]
